According to US20050169992A1, “Methods and dosage forms for increasing solubility of drug compositions for controlled delivery” (priority 2003, published 2005):

Experiments:
[1] = Analytical Profiles of Drug Substances Volume 13, p 425; cited from earlier work
[2] = Saturated solubility of topiramate in de-ionized water and aqueous surfactant solutions at 37° C.; type: physicochemical; details: Lutrol F127, F87, F108, F68 and Myrj 52 solutions at 1, 5, 15 weight percent, FIG. 6
Procedure: Aqueous solubility is determined by adding the therapeutic agent to stirred or agitated water maintained in a constant temperature bath at a temperature of 37 degrees centigrade until equilibrium is established between the dissolved and undissolved states and the concentration of dissolved drug is constant. The resulting solution saturated with active agent is then filtered, typically under pressure through a 0.8-micron Millipore filter, and the concentration in solution is measured by any appropriate analytical method including gravimetric, ultraviolet spectrophotometry, refractive index, refractive index chromatography, and the like.
The present invention involves a method to match the appropriate solid surfactant or blend of surfactants with a particular pharmaceutical active agent to produce the solubilizing core, or S-Core of the present invention. […] Then, pharmaceutical agent is added in excess to the surfactant solutions and the saturated solubility of the pharmaceutical active agent is then measured by an appropriate analytical method such as ultraviolet spectroscopy, chromatographic methods, or gravimetric analysis. […]
The aqueous surfactant solutions were then equilibrated to constant temperature in a 37° C. water bath. […] The resulting saturated solutions of drug were filtered through 0.8-micron filters and analyzed for drug concentration by refractive index chromatography. […]

Row | Topiramate solubility in water in the presence of surfactant compared to control [2] | Structure (SMILES) | Solubility of phenytoin [1] [µg/mL]
1 |  | O=C1NC(=O)C(c2ccccc2)(c2ccccc2)N1 [phenytoin] | 20
2 | increased | CC1(C)O[C@@H]2[C@@H](CO[C@@]3(COS(N)(=O)=O)OC(C)(C)O[C@@H]23)O1 [topiramate] | 
